# According to US20220354957A1, “PEPTIDES TARGETING MACROPHAGES, AND CONJUGATES, COMPOSITIONS, AND USES THEREOF” (Twinpig Biolab, Inc., priority 2021, published 2022):
# Where no end group is shown, it is not given here.
# Assays:
# [1] = system: THP-1-derived M2 macrophages; assay: Cytotoxicity assay (CCK-8 cell viability); type: cell-based, human; details: 0.05-20 μM, 24 h
# Protocol: (§1) THP-1 cells were differentiated into macrophages by 24 h incubation with 100 nM PMA and polarized in M2 macrophages by incubation with 20 ng/ml of IL-4 and 20 ng/ml of IL-13 for 72 h. Polarized cells were treated with increasing concentrations of TAMpep and fragments of TAMpep (0.05-20 μM) for 24 h. Cell viability was analyzed using the CCK-8 assay: CCK-8 reagent (Enzo Life Sciences) was added to each well; incubation was continued for 2 hours, and absorbance was measured at 450 nm with a microplate reader (Molecular Devices).
# [2] = system: THP-1-derived M2 macrophages; assay: Affinity test of FITC-conjugated peptides by flow cytometry; type: cell-based, human
# Protocol: THP-1 monocytes were differentiated into macrophages by 24 h incubation with 100 nM phorbol 12-myristate 13-acetate (PMA, Sigma) followed by 24 h incubation in RPMI medium (Invitrogen). Macrophages were polarized in M1 macrophages (M1) by incubation with 20 ng/ml of IFN-γ (Prospec) and 100 ng/ml of LPS (Sigma). Macrophage M2 polarization(M2) was obtained by incubation with 20 ng/ml of interleukin (IL) 4 (Prospec) and 20 ng/ml of interleukin 13 (Prospec). M2-like tumor-associated macrophages were polarized by incubation with 20% conditioned medium of PC3 cells.
# THP-1 cells were differentiated into macrophages by a 24 h incubation with 100 nM PMA and polarized in M2 macrophages by incubation with 20 ng/ml of IL-4 and 20 ng/ml of IL-13 for 72 h. Polarized cells were treated with 50 nM TAMpep and fragments of TAMpep or Mpep and alanine library of Mpep conjugated with FITC for 1 h. To test change of macrophage population in melanoma tissue, the single cells were isolated from tumor tissue through a 40 μm nylon mesh strainer after dissociation by DNase I (1 U/mL) and collagenase D (1 mg/ml). Cells were detected on BD FACSCalibur and BD FACSCantoII instruments and analyzed by FlowJo software.
# M2 macrophages = assay: Affinity by immunofluorescence microscopy; type: cell-based, human
# TRAMP-C2 cells = assay: Mouse model of prostate cancer (subcutaneous TRAMP-C2); type: in vivo; details: TRAMP-C2 prostate cancer model
# Description: (§2) BALB/c and C57BL/6 (B6) wild-type mice were purchased from DBL. For the subcutaneous tumor model of melanoma and prostate cancer, CT26 (3×10^5 cells/mouse), B16F10 (1×10^6 cells/mouse) and TRAMP-C2 cells (1×10^6 cells/mouse) were mixed with Matrigel matrix (Corning) and inoculated subcutaneously into the right flank of the mice, and 4T1 (1×10^5 cells/mouse) cells mixed with Matrigel matrix and inoculated into a 4th mammary fat pad of the mice. TAMpepK, and MpepK peptides (200 nmol/kg) were injected intraperitoneally every 3 days, beginning at day 7 after tumor inoculation, and tumor volume was measured by electronic caliper. All tumor tissues were harvested after the end of the study and tumor weight was measured by an electronic balance.
# Cells were harvested and lysed in PRO-PREP protein extraction solution (iNtRON, Bio Inc, Sungnam, Korea). Protein concentrations were measured with a Bradford Protein Assay Reagent kit (Bio-Rad, Richmond, CA, USA). Proteins were fractionated by 10% SDS-polyacrylamide gels electrophoresis (PAGE), and transferred onto polyvinylidene difluoride (PVDF) membranes. These were incubated with anti-arginase 1, anti-CD206, anti-caspase 3, anti-E-cadherin, anti-fibronectin, anti-PCNA, anti-TGF-β, anti-MMP9, and anti-β-actin Ab as primary antibodies. Goat anti-rabbit horseradish peroxidase-conjugated IgG or goat anti-mouse horseradish peroxidase-conjugated IgG (Abcam, Cambridge, Mass., USA) served as secondary antibodies. Protein bands were detected with a chemiluminescence reagent kit (SurModics).
# [3] = Cytotoxicity assay (CCK-8 cell viability); type: cell-based, human; details: THP-1-derived M2 macrophages, CCK-8
# Protocol: as §1
# mouse RBC = assay: Hemolytic activity assay; type: cell-based; details: 0.1-50 μM, 37° C., 1 h, read-out: hemolysis IC50
# Protocol: Mouse blood samples were collected in tubes containing heparin as an anticoagulant and stored at 4 ° C. before use. Whole blood sample were centrifuged at 1,500×g for 5 min and the resulting plasma fraction was removed from the samples. The pellets were washed with an equal volume of saline, mixing by inversion. The centrifuging and washing steps were repeated 5 times. Red blood cells were counted by a hemocytometer and adjusted to […]. Red blood cells were then incubated at 37° C. for 1 h in 1% Triton X-100 (positive control), in PBS (blank), or with increasing concentrations of TAMpep and Mpep (0.1-50 μM) were evaluated. The samples were then centrifuged at 10,000 g for 5 min, the supernatant was separated from the pellet, and its absorbance measured at 570 nm. The relative optical density compared to that of the suspension treated with 1% Triton X-100 was defined as the percentage of hemolysis.
# [4] = Cytotoxicity in human melanoma cells; type: cell-based; details: Sk-Mel-28 cells
# [5] = system: murine melanoma cells (B16F10 cell line); assay: Mouse model of melanoma (subcutaneous B16F10); type: in vivo; details: B16F10 melanoma model, vs PBS group
# Description: as §2
compound,measurement,setting,value
"CC[C@H](C)[C@H](NC(=O)[C@H](CC(C)C)NC(=O)[C@H](C)NC(=O)[C@@H]1CCCN1C(=O)[C@H](CC(C)C)NC(=O)CNC(=O)[C@@H](NC(=O)[C@@H](NC(=O)[C@H](CC(C)C)NC(=O)[C@@H](NC(C)=O)C(C)C)[C@@H](C)O)[C@@H](C)O)C(=O)N[C@@H](CO)C(=O)N[C@@H](Cc1c[nH]c2ccccc12)C(=O)N[C@H](C(=O)N[C@@H](CCCCN)C(=O)N[C@@H](CCCNC(=N)N)C(=O)N[C@@H](CCCCN)C(=O)N[C@@H](CCCNC(=N)N)C(=O)N[C@@H](CCC(N)=O)C(=O)N[C@@H](CCC(N)=O)C(=O)O)[C@@H](C)CC [Mpep, Val-Leu-Thr-Thr-Gly-Leu-Pro-Ala-Leu-Ile-Ser-Trp-Ile-Lys-Arg-Lys-Arg-Gln-Gln]",cytotoxic effect in M2 macrophages (in words),[1],low cytotoxicity
"CC[C@H](C)[C@H](NC(=O)CN)C(=O)NCC(=O)N[C@@H](C)C(=O)N[C@H](C(=O)N[C@@H](CC(C)C)C(=O)N[C@@H](CCCCN)C(=O)N[C@H](C(=O)N[C@@H](CC(C)C)C(=O)N[C@H](C(=O)N[C@H](C(=O)NCC(=O)N[C@@H](CC(C)C)C(=O)N1CCC[C@H]1C(=O)N[C@@H](C)C(=O)N[C@@H](CC(C)C)C(=O)N[C@H](C(=O)N[C@@H](CO)C(=O)N[C@@H](Cc1c[nH]c2ccccc12)C(=O)N[C@H](C(=O)N[C@@H](CCCCN)C(=O)N[C@@H](CCCNC(=N)N)C(=O)N[C@@H](CCCCN)C(=O)N[C@@H](CCCNC(=N)N)C(=O)N[C@@H](CCC(N)=O)C(=O)N[C@@H](CCC(N)=O)C(N)=O)[C@@H](C)CC)[C@@H](C)CC)[C@@H](C)O)[C@@H](C)O)C(C)C)C(C)C [TAMpep, reference compound]",affinity in M2 macrophages compared to M0 and M1 macrophages,"[2]; FITC-conjugated peptides, THP-1-derived M0, M1, M2, FACS",significantly more high affinity
same,affinity in M2 macrophages by immunofluorescence microscopy,M2 macrophages,high affinity
same,body weight of mice,TRAMP-C2 cells,did not significantly change
CC[C@H](C)[C@H](NC(=O)CNC(C)=O)C(=O)NCC(=O)N[C@@H](C)C(=O)N[C@H](C(=O)N[C@@H](CC(C)C)C(=O)N[C@@H](CCCCN)C(=O)N[C@H](C(=O)N[C@@H](CC(C)C)C(=O)N[C@H](C(=O)N[C@H](C(=O)NCC(=O)N[C@@H](CC(C)C)C(=O)N1CCC[C@H]1C(=O)N[C@@H](C)C(=O)N[C@@H](CC(C)C)C(=O)N[C@H](C(=O)N[C@@H](CO)C(=O)N[C@@H](Cc1c[nH]c2ccccc12)C(=O)N[C@H](C(=O)N[C@@H](CCCCN)C(=O)N[C@@H](CCCNC(=N)N)C(=O)N[C@@H](CCCCN)C(=O)N[C@@H](CCCNC(=N)N)C(=O)N[C@@H](CCC(N)=O)C(=O)N[C@@H](CCC(N)=O)C(=O)NCC(=O)NCC(=O)NCC(=O)NCC(=O)N[C@@H](CO)C(=O)N[C@H](CCCCN)C(=O)N[C@H](CC(C)C)C(=O)N[C@H](C)C(=O)N[C@H](CCCCN)C(=O)N[C@H](CC(C)C)C(=O)N[C@H](C)C(=O)N[C@H](CCCCN)C(=O)N[C@H](CCCCN)C(=O)N[C@H](CC(C)C)C(=O)N[C@H](C)C(=O)N[C@H](CCCCN)C(=O)N[C@H](CC(C)C)C(=O)N[C@H](C)C(=O)N[C@H](CCCCN)C(=O)O)[C@@H](C)CC)[C@@H](C)CC)[C@@H](C)O)[C@@H](C)O)C(C)C)C(C)C [TAMpepK],IC50,[3],1060 nM
same,IC50,mouse RBC,1120 nM
same,IC50,[4],3.58 µM
same,body weight of mice,[5],not significantly changed
same,body weight of mice,TRAMP-C2 cells,did not significantly change
"CC(=O)N[C@H](CCCCN)C(=O)N[C@H](CC(C)C)C(=O)N[C@H](C)C(=O)N[C@H](CCCCN)C(=O)N[C@H](CC(C)C)C(=O)N[C@H](C)C(=O)N[C@H](CCCCN)C(=O)N[C@H](CCCCN)C(=O)N[C@H](CC(C)C)C(=O)N[C@H](C)C(=O)N[C@H](CCCCN)C(=O)N[C@H](CC(C)C)C(=O)N[C@H](C)C(=O)N[C@H](CCCCN)C(=O)O [dKLA, d-Lys-d-Leu-d-Ala-d-Lys-d-Leu-d-Ala-d-Lys-d-Lys-d-Leu-d-Ala-d-Lys-d-Leu-d-Ala-d-Lys, reference compound]",body weight of mice,TRAMP-C2 cells,did not significantly change
A18: the eleventh S (serine) of Mpep is substituted with alanine (SEQ ID NO:21) (Ac-VLTTGLPALIAWIKRKRQQ),affinity of alanine-substituted Mpep peptides in M2 macrophages,"[2]; alanine-substituted library of Mpep, FITC-conjugated, FACS",increased affinity
